According to patent US20140120087A1, “TRIAZOLOPYRIDINES” (BAYER INTELLECTUAL PROPERTY GMBH, priority 2011, published 2014):

Columns and labels:
Mps-1 kinase [1] = target: T1, Mps-1 kinase (Homo sapiens, UniProt P33981); assay: Mps-1 kinase assay with 2 mM ATP (TR-FRET)
T1 sequence (P33981 1-857): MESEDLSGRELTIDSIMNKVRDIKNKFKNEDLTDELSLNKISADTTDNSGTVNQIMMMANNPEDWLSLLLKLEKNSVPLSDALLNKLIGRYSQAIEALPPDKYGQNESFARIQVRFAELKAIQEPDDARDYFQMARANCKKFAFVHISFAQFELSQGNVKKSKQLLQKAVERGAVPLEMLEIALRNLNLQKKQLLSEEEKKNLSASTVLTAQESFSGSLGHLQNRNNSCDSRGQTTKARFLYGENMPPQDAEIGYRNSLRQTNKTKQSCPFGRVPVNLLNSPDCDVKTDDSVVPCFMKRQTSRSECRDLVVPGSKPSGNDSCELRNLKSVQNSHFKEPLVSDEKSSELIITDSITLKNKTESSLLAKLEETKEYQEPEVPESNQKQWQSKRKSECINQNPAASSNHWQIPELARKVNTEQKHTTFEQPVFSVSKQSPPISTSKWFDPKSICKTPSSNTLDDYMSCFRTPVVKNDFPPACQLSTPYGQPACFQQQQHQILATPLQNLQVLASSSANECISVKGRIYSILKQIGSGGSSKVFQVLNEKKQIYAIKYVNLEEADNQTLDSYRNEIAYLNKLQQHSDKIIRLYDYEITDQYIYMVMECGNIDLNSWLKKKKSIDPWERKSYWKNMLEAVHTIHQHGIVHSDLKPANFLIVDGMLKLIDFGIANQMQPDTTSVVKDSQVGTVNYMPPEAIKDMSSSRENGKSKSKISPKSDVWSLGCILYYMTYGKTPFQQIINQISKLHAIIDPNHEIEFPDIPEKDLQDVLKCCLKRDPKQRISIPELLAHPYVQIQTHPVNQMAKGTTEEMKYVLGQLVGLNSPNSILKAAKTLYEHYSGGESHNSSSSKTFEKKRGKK

Mps-1 kinase [2] = target: T1, Mps-1 kinase; assay: Mps-1 kinase assay with 10 μM ATP (TR-FRET)

Row | IC50 (Mps-1 kinase [1]) [nM] | IC50 (Mps-1 kinase [2]) [nM] | SMILES
1 | 19 | ≤ 1 | COc1cc(S(C)(=O)=O)ccc1Nc1nc2ccc(-c3ccc(C(=O)NCc4ccc(F)cc4)c(OC)c3)cn2n1 [Example 09.1, N-(4-fluorobenzyl)-2-methoxy-4-(2-{[2-methoxy-4-(methylsulfonyl)phenyl]-amino}[1,2,4]triazolo[1,5-α]pyridin-6-yl)benzamide]
2 | 17 | ≤ 1 | COc1cc(S(C)(=O)=O)ccc1Nc1nc2ccc(-c3ccc(NC(=O)Cc4ccc(F)cc4F)cc3)cn2n1 [Example 10.01]
3 | 11 | ≤ 1 | COc1cc(S(C)(=O)=O)ccc1Nc1nc2ccc(-c3ccc(C(=O)NCc4ccc(F)cc4F)cc3)cn2n1 [Example 11.01, N-(2,4-difluorobenzyl)-4-(2-{[2-methoxy-4-(methylsulfonyl)phenyl]amino}-[1,2,4]triazolo[1,5-α]pyridin-6-yl)benzamide]
4 | ≤ 1 | ≤ 1 | COCCNC(=O)c1ccc(Nc2nc3ccc(-c4ccc(NC(=O)Cc5ccc(F)cc5)cc4)cn3n2)c(OC)c1 [Example 12.01, 4-{[6-(4-{[(4-fluorophenyl)-acetyl]amino}phenyl)[1,2,4]triazolo[1,5-a]pyridin-2-yl]amino}-3-methoxy-N-(2-methoxyethyl)benzamide]
5 | ≤ 1 | ≤ 1 | COc1cc(C(=O)NCCS(C)(=O)=O)ccc1Nc1nc2ccc(-c3ccc(NC(=O)Cc4ccc(F)cc4)cc3)cn2n1 [Example 12.03]
6 | ≤ 1 | ≤ 1 | COc1cc(C(=O)NCCF)ccc1Nc1nc2ccc(-c3ccc(NC(=O)Cc4ccc(F)cc4)cc3)cn2n1 [Example 12.05, N-(2-fluoroethyl)-4-{[6-(4-{[(4-fluorophenyl)acetyl]-amino}phenyl)[1,2,4]-triazolo[1,5-a]pyridin-2-yl]amino}-3-methoxy-benzamide]
7 | ≤ 1 | ≤ 1 | CCN(C)C(=O)c1ccc(Nc2nc3ccc(-c4ccc(NC(=O)Cc5ccc(F)cc5)cc4)cn3n2)c(OC)c1 [Example 12.06, N-ethyl-4-{[6-(4-{[(4-fluorophenyl)acetyl]amino}-phenyl)[1,2,4]triazolo[1,5-a]pyridin-2-yl]amino}-3-methoxy-N-methyl-benzamide]
8 | ≤ 1 | ≤ 1 | COc1cc(C(=O)NCC(F)F)ccc1Nc1nc2ccc(-c3ccc(NC(=O)Cc4ccc(F)cc4)cc3)cn2n1 [Example 12.07, N-(2,2-difluoroethyl)-4-{[6-(4-{[(4-fluorophenyl)-acetyl]amino}phenyl)[1,2,4]triazolo[1,5-a]pyridin-2-yl]amino}-3-methoxy-benzamide]
9 | ≤ 1 | ≤ 1 | COc1cc(C(=O)N(C)CCN(C)C)ccc1Nc1nc2ccc(-c3ccc(NC(=O)Cc4ccc(F)cc4)cc3)cn2n1 [Example 12.08, N-[2-(dimethylamino)ethyl]-4-{[6-(4-{[(4-fluorophenyl)-acetyl]amino}phenyl)[1,2,4]triazolo[1,5-a]pyridin-2-yl]amino}-3-methoxy-N-methylbenzamide]
10 | 2.5 | ≤ 1 | COc1cc(C(=O)N(C)CC(F)(F)F)ccc1Nc1nc2ccc(-c3ccc(NC(=O)Cc4ccc(F)cc4)cc3)cn2n1 [Example 12.09, 4-{[6-(4-{[(4-fluorophenyl)-acetyl]amino}phenyl)[1,2,4]triazolo[1,5-a]pyridin-2-yl]amino}-3-methoxy-N-methyl-N-(2,2,2-trifluoro-ethyl)benzamide]
11 | ≤ 1 | ≤ 1 | COc1cc(C(=O)NCCN(C)C)ccc1Nc1nc2ccc(-c3ccc(NC(=O)Cc4ccc(F)cc4)cc3)cn2n1 [Example 12.10, N-[2-(dimethylamino)ethyl]-4-{[6-(4-{[(4-fluorophenyl)-acetyl]amino}phenyl)[1,2,4]triazolo[1,5-a]pyridin-2-yl]amino}-3-methoxy-benzamide]
12 | 1.2 | ≤ 1 | COc1cc(C(=O)NCCCF)ccc1Nc1nc2ccc(-c3ccc(NC(=O)Cc4ccc(F)cc4)cc3)cn2n1 [Example 12.11, 4-{[6-(4-{[(4-fluorophenyl)-acetyl]amino}phenyl)[1,2,4]triazolo[1,5-a]pyridin-2-yl]amino}-N-(3-fluoro-propyl)-3-methoxybenzamide]
13 | 13 | ≤ 1 | COc1cc(S(C)(=O)=O)c(F)cc1Nc1nc2ccc(-c3ccc(NC(=O)Cc4ccc(F)cc4)cc3)cn2n1 [Example 12.12, N-[4-(2-{[5-fluoro-2-methoxy-4-(methylsulfonyl)-phenyl]amino}[1,2,4]-triazolo[1,5-a]pyridin-6-yl)phenyl]-2-(4-fluoro-phenyl)acetamide]
14 | 1.6 | ≤ 1 | COc1cc(S(=O)(=O)NC(C)(C)C)ccc1Nc1nc2ccc(-c3ccc(NC(=O)Cc4ccc(F)cc4)cc3)cn2n1 [Example 12.15, N-[4-(2-{[4-(tert-butyl-sulfamoyl)-2-methoxy-phenyl]amino}[1,2,4]-triazolo[1,5-a]pyridin-6-yl)phenyl]-2-(4-fluoro-phenyl)acetamide]
15 | ≤ 1 | ≤ 1 | CCN(Cc1ccc(Nc2nc3ccc(-c4ccc(NC(=O)Cc5ccc(F)cc5)cc4)cn3n2)c(OC)c1)C(C)(C)CO [Example 12.16, N-(4-{2-[(4-{[ethyl(1-hydroxy-2-methylpropan-2-yl)amino]methyl}-2-methoxyphenyl)amino]-[1,2,4]triazolo[1,5-a]pyridin-6-yl}phenyl)-2-(4-fluorophenyl)acetamide]
16 | ≤ 1 | ≤ 1 | COc1cc(C(C)(C)O)ccc1Nc1nc2ccc(-c3ccc(NC(=O)Cc4ccc(F)cc4)cc3)cn2n1 [Example 12.17, 2-(4-fluorophenyl)-N-[4-(2-{[4-(2-hydroxypropan-2-yl)-2-methoxyphenyl]amino}-[1,2,4]triazolo[1,5-a]pyridin-6-yl)phenyl]acetamide]
17 | 1.5 | ≤ 1 | COc1ccc(Nc2nc3ccc(-c4ccc(NC(=O)Cc5ccc(F)cc5)cc4)cn3n2)c(OC)c1 [Example 12.18, N-(4-{2-[(2,4-dimethoxy-phenyl)amino][1,2,4]-triazolo[1,5-a]pyridin-6-yl}phenyl)-2-(4-fluoro-phenyl)acetamide]
18 | ≤ 1 | ≤ 1 | CCOc1cc(C(=O)N(C)CC)ccc1Nc1nc2ccc(-c3ccc(NC(=O)Cc4ccc(F)cc4)cc3)cn2n1 [Example 12.19, 3-ethoxy-N-ethyl-4-{[6-(4-{[(4-fluorophenyl)acetyl]-amino}phenyl)[1,2,4]-triazolo[1,5-a]pyridin-2-yl]amino}-N-methyl-benzamide]
19 | ≤ 1 | ≤ 1 | CCOc1cc(C(=O)NCCN(C)C)ccc1Nc1nc2ccc(-c3ccc(NC(=O)Cc4ccc(F)cc4)cc3)cn2n1 [Example 12.20, N-[2-(dimethylamino)ethyl]-3-ethoxy-4-{[6-(4-{[(4-fluorophenyl)acetyl]amino}-phenyl)[1,2,4]triazolo[1,5-a]pyridin-2-yl]amino}-benzamide]
20 | ≤ 1 | ≤ 1 | CS(=O)(=O)CCNC(=O)c1ccc(Nc2nc3ccc(-c4ccc(NC(=O)Cc5ccc(F)cc5)cc4)cn3n2)c(OCC(F)(F)F)c1 [Example 12.21, 4-{[6-(4-{[(4-fluorophenyl)-acetyl]amino}phenyl)[1,2,4]triazolo[1,5-a]pyridin-2-yl]amino}-N-[2-(methyl-sulfonyl)ethyl]-3-(2,2,2-trifluoroethoxy)benzamide]
21 | ≤ 1 | ≤ 1 | CC(C)(CO)NC(=O)c1ccc(Nc2nc3ccc(-c4ccc(NC(=O)Cc5ccc(F)cc5)cc4)cn3n2)c(OCC(F)(F)F)c1 [Example 12.22, 4-{[6-(4-{[(4-fluorophenyl)-acetyl]amino}phenyl)[1,2,4]triazolo[1,5-a]pyridin-2-yl]amino}-N-(1-hydroxy-2-methylpropan-2-yl)-3-(2,2,2-trifluoroethoxy)benzamide]
22 | ≤ 1 | ≤ 1 | CN(C)CCNC(=O)c1ccc(Nc2nc3ccc(-c4ccc(NC(=O)Cc5ccc(F)cc5)cc4)cn3n2)c(OCC(F)(F)F)c1 [Example 12.23, N-[2-(dimethylamino)ethyl]-4-{[6-(4-{[(4-fluorophenyl)-acetyl]amino}phenyl)[1,2,4]triazolo[1,5-a]pyridin-2-yl]amino}-3-(2,2,2-trifluoro-ethoxy)benzamide]
23 | 2.7 | ≤ 1 | NC(=O)c1ccc(Nc2nc3ccc(-c4ccc(NC(=O)Cc5ccc(F)cc5)cc4)cn3n2)c(OC(F)(F)F)c1 [Example 12.25, 4-{[6-(4-{[(4-fluorophenyl)-acetyl]amino}phenyl)[1,2,4]triazolo[1,5-a]pyridin-2-yl]amino}-3-(trifluoro-methoxy)benzamide]
24 | 1.2 | ≤ 1 | CC(C)S(=O)(=O)c1ccc(Nc2nc3ccc(-c4ccc(NC(=O)Cc5ccc(F)cc5)cc4)cn3n2)c(OC(F)F)c1 [Example 12.26, N-[4-(2-{[2-(difluoro-methoxy)-4-(propan-2-ylsulfonyl)phenyl]amino}-[1,2,4]triazolo[1,5-a]pyridin-6-yl)phenyl]-2-(4-fluorophenyl)acetamide]
